Measurements taken from patent EP0282309A2, “Azole-aminomethylene bisphosphonic acid derivatives” (YAMANOUCHI PHARMACEUTICAL CO. LTD., priority 1987, dated 1988).

Tested on: PTH-induced hypercalcemia rats
Test: Hypercalcemia inhibiting effect: serum Ca++ lowering in PTH-induced hypercalcemia rats
Type: in vivo, Wistar male rats
Conditions: blood 45 min after PTH, mean ± S.E., N=5
Method: Typical effective ingredients according to the present invention were administered to parathyroid hormone (hereinafter referred to as "PTH")-induced hypercalcemia rats and, for each ingredient, the serum calcium level lowering effect was estimated. Test method: Human 1 to 34 PTH (obtained from the Peptide Institute) was intravenously administered at a dose of 30 µg/kg to 5-week-old Wistar male rats fasted for 20 hours. For the administration, PTH was dissolved in physiological saline containing 0.1% BSA (bovine serum albumin) and the solution was given to the rats in an amount of 5 ml/kg. The normal control group was given 0.1% BSA-containing physiological saline alone in the same manner. […] The blood samples were immediately centrifuged at 4°C, and 3,000 rpm (revolutions per minute) for 10 minutes. The thus-separated sera were measured for ionic calcium (Ca⁺⁺) concentration by means of a Ca⁺⁺ meter (Sera 250; Horiba Seisakusho).
The compounds according to the invention were dissolved, using sodium hydroxide and hydrochloric acid, in physiological saline (pH 7.4), for subcutaneous administration, in such amounts that the dose amounted to 2 ml/kg, and, for oral administration, in distilled water (pH 7.4) so that the dose amounted to 5 ml/kg. They were administered 24 or 72 hours before PTH administration. The normal control group and the control group were given physiological saline or distilled water in the same manner.
The results for each group were expressed in terms of mean ±S.E. (standard error) and comparison was made among the groups by testing by one-way analysis of variance. The significance level was taken at 5%.
The compound of Example 6 was administered 24 hours before PTH administration while other compounds were administered 72 hours before PTH administration.

[1] = subcutaneous administration, 0.1 mg/kg, 72 hours before PTH
[2] = subcutaneous administration, 0.3 mg/kg, 72 hours before PTH
[3] = subcutaneous administration, 1.0 mg/kg, 72 hours before PTH
[4] = oral administration, 10 mg/kg, 72 hours before PTH
[5] = oral administration, 30 mg/kg, 72 hours before PTH
[6] = oral administration, 100 mg/kg, 72 hours before PTH

SMILES | Serum Ca^++ [1] | Serum Ca^++ [2] | Serum Ca^++ [3] | Serum Ca^++ [4] | Serum Ca^++ [5] | Serum Ca^++ [6] | Serum Ca^++ (subcutaneous administration, 0.03 mg/kg, 72 hours before PTH (30 µg/kg i.v.)) [m moles/liter] | Serum Ca^++ (oral administration, 10 mg/kg, 24 hours before PTH) [mmol/L] | Serum Ca^++ (oral administration, 30 mg/kg, 24 hours before PTH) [mmol/L] | Serum Ca^++ (oral administration, 100 mg/kg, 24 hours before PTH) [mmol/L] | Serum Ca^++ (subcutaneous administration, 0.1 mg/kg, 24 hours before PTH) [mmol/L] | Serum Ca^++ (subcutaneous administration, 0.3 mg/kg, 24 hours before PTH) [mmol/L] | Serum Ca^++ (subcutaneous administration, 1.0 mg/kg, 24 hours before PTH) [mmol/L]
Cc1nc(NC(P(=O)(O)O)P(=O)(O)O)sc1C [Example 21, [(4,5-Dimethyl-2-thiazolyl)amino]methylene bis(phosphonic acid)] | 1.48 ± 0.01 mmol/L | 1.40 ± 0.01 mmol/L | 1.30 ± 0.02 mmol/L | – | – | – | – | – | – | – | – | – | –
Cc1cnc(NC(P(=O)(O)O)P(=O)(O)O)o1 [Example 10, [(5-methyl-2-oxazolyl)amino]methylene bis(phosphonic acid)] | 1.29 ± 0.01 m moles/liter | – | – | 1.42 ± 0.03 m moles/liter | 1.27 ± 0.03 m moles/liter | 1.15 ± 0.04 m moles/liter | 1.46 ± 0.01 | – | – | – | – | – | –
O=P(O)(O)C(Nc1nccs1)P(=O)(O)O [Example 6, [(2-thiazolyl)amino]methylenebis(phosphonic acid)] | – | – | – | – | – | – | – | 1.58 ± 0.03 | 1.54 ± 0.02 | 1.45 ± 0.03 | 1.49 ± 0.01 | 1.45 ± 0.01 | 1.41 ± 0.01
Cc1cnc(NC(P(=O)(O)O)P(=O)(O)O)s1 [Example 20, [(5-Methyl-2-thiazolyl)amino]methylene bis(phosphonic acid)] | 0.95 ± 0.01 m moles/liter | 0.93 ± 0.03 m moles/liter | 0.92 ± 0.03 m moles/liter | 1.39 ± 0.01 mmol/L | 1.25 ± 0.01 mmol/L | 1.12 ± 0.0 mmol/L | – | – | – | – | – | – | –
